Tests used:
[1] = tested on: cancer cell line SW620, in which mutated RON (Δ155) is expressed; assay: Cell-killing efficacy in RON-mutated cancer cell line SW620 (trypan blue); type: cell-based; conditions: for cytotoxicity at 1 µM / cytotoxicity at 5 µM: Homo sapiens, SW-620, 48 hours, trypan blue, n=2, read-out: Cell death (%) Cancer cell line SW620; for cell-killing effect (in words): SW620, as compared with the positive control
Description: (§1) Experimental Example 4: Measurement of Cell-Killing Efficacy of Example Compounds in RON-Mutated Cancer Cell Lines
(§2) Each of two colorectal cancer cell lines, that is, the cancer cell line HT29 (30038, KCLB, RPMI+10% FBS), in which mutated RON (Δ160) is expressed, and the cancer cell line SW620 (CCL-227, ATCC, RPMI+10% FBS), in which mutated RON (Δ155) is expressed, was dispensed into each 60 mm^2 dish at 1×10^5 cells. After 24 hours, the dish was treated with each of the example compounds at a concentration of 1 μM or 5 μM while performing medium exchange, and then reaction was allowed to proceed for 48 hours. After 48 hours, centrifugation was performed for 4 minutes at 1,500 rpm to collect cells and cell fluid. Thereafter, living cells and dead cells were quantified (n=2) using a trypan blue solution (15250-061, Gibco), and statistical analysis was performed using Excel-T-test. Here, as a negative control, only a solvent (0.10% DMSO) was used; and as a positive control, N-(4-(2-amino-3-chloropyridin-4-yloxy)-3-fluorophenyl)-4-ethoxy-1-(4-fluorophenyl)-2-oxo-1,2-dihydropyridine-3-carboxamide, which is the compound of Example 1 in WO 2008/058229 A1, was used.

[2] = tested on: cancer cell line KM12C, in which RON is activated; assay: Cell-killing efficacy in RON-activated cancer cell line (trypan blue); type: cell-based; conditions: for cytotoxicity at 1 µM / cytotoxicity at 5 µM: Homo sapiens, 48 hours, trypan blue, n=2, read-out: Cell death (%) Cancer cell line KM12C; for cell-killing effect (in words): as compared with the positive control
In short: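 KM12C cells seeded 1×10^5 per 60 mm^2 dish in MEM + 10% FBS, then exposed 24 h later to compound at 1 μM or 5 μM for 48 h.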

RON tyrosine kinase = biological target: T1, RON tyrosine kinase (Homo sapiens, UniProt Q04912); assay: Enzyme inhibitory activity against RON tyrosine kinase (TR-FRET); type: biochemical; conditions: RON (Carna Bioscience)
T1 construct: purchased Carna Bioscience
In short: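 Recombinant RON was preincubated with compound for 15 min at RT in 50 mM HEPES pH 7.5, 10 mM MgCl2, 1 mM EGTA, 2 mM DTT, 0.01% Tween-20. Enzyme (0.4 nM), ATP (60 μM) and tyrosine peptide (400 nM) were prepared at 2×, 4× and 4× final. After 60 min at RT, EDTA/Eu-anti-phosphotyrosine stop; IC50 from 665 nm TR-FRET emission.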

[3] = tested on: cancer cell line HT29, in which mutated RON (Δ160) is expressed; assay: Cell-killing efficacy in RON-mutated cancer cell line HT29 (trypan blue); type: cell-based; conditions: for cytotoxicity at 1 µM / cytotoxicity at 5 µM: Homo sapiens, HT-29, 48 hours, trypan blue, n=2, read-out: Cell death (%) Cancer cell line HT29; for cell-killing effect (in words): HT29, as compared with the positive control
Description: as §1, §2

[4] = tested on: cancer cell line KM12C, in which RON is activated; assay: Cell growth inhibitory ability in RON-activated cancer cell line (MTS); type: cell-based; conditions: Homo sapiens, 48 hours, absorbance 490 nm
In short: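 KM12C cells (RON-activated, MEM with FBS) exposed to compound […] for 48 h. MTS added 24 h after treatment ended, incubated 4 h at 37° C, absorbance read at 490 nm. IC50 derived from absorbance.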

T1 sequence (Q04912 25-1400): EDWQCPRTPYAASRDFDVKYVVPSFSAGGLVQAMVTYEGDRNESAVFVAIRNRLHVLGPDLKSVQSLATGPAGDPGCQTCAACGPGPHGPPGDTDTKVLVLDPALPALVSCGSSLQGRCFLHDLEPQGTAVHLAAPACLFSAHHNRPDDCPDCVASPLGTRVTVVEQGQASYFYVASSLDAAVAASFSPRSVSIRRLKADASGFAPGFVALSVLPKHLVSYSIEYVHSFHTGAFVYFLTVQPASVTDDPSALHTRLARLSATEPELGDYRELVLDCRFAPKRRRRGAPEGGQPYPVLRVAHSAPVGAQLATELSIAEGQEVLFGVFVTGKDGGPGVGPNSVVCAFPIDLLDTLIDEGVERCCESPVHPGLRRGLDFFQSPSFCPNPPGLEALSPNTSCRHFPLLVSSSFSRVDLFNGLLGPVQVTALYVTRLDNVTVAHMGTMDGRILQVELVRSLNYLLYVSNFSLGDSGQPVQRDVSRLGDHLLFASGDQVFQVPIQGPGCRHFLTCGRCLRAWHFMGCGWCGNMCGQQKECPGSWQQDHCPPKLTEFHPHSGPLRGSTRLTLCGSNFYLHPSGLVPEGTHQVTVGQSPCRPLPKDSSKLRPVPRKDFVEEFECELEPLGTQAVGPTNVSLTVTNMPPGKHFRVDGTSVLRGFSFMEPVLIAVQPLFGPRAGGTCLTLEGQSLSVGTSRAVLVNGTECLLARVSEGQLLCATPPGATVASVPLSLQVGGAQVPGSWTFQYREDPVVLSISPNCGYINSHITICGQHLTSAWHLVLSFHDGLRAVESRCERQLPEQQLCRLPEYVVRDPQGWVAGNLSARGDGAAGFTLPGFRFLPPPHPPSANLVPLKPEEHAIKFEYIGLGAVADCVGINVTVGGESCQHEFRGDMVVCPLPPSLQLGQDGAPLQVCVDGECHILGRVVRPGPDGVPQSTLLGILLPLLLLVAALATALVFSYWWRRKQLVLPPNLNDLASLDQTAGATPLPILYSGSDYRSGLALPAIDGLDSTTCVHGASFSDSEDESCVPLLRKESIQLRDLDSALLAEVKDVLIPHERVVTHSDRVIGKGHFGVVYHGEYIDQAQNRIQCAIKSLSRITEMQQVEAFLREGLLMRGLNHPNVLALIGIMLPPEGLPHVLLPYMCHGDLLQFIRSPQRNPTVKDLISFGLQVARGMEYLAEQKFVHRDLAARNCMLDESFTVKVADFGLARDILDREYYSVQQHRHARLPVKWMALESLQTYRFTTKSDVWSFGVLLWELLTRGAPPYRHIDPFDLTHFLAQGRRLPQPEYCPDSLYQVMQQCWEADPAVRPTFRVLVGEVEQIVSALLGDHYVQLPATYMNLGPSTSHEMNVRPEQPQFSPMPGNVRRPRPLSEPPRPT

IC50 (RON tyrosine kinase) [nM] | IC50 [4] [nM] | Structure (SMILES) | cytotoxicity at 1 µM [1] [%] | cytotoxicity at 5 µM [1] [%] | cytotoxicity at 1 µM [2] [%] | cytotoxicity at 5 µM [2] [%] | cytotoxicity at 1 µM [3] [%] | cytotoxicity at 5 µM [3] [%] | cell-killing effect (in words) [1] | cell-killing effect (in words) [2] | cell-killing effect (in words) [3]
0.66 | 0.3 | Cn1cnc(-c2cc3nccc(Oc4ccc(NC(=O)c5c6c(cn(-c7ccc(F)cc7)c5=O)CCO6)cc4F)c3s2)c1 [Example 8, N-(3-Fluoro-4-((2-(1-methyl-1H-imidazol-4-yl)thieno[3,2-b]pyridin-7-yl)oxy)phenyl)-5-(4-fluorophenyl)-6-oxo-2,3,5,6-tetrahydrofuro[3,2-c]pyridine-7-carboxamide] | 5.98 | 7.83 | 32.4 | 46.9 | 4.88 | 16.8 | – | – | –
– | 1 | CN(C)C1CN(Cc2ccc(-c3cc4nccc(Oc5ccc(NC(=O)c6c7c(cn(-c8ccc(F)cc8)c6=O)CCO7)cc5F)c4s3)nc2)C1 [Example 20, N-(4-((2-(5-((3-(Dimethylamino)azetidin-1-yl)methyl)pyridin-2-yl)thieno[3,2-b]pyridine-7-yl)oxy)-3-fluorophenyl)-5-(4-fluorophenyl)-6-oxo-2,3,5,6-tetrahydrofuro[3,2-c]pyridine-7-carboxamide] | 17.4 | 91.2 | 8.12 | 35.5 | – | – | – | – | –
– | 2 | COC1CCN(Cc2ccc(-c3cc4nccc(Oc5ccc(NC(=O)c6c7c(cn(-c8ccc(F)cc8)c6=O)CCO7)cc5F)c4s3)nc2)CC1 [Example 31, N-(3-Fluoro-4-((2-(5-((4-methoxypiperidin-1-yl)methyl)pyridin-2-yl)thieno[3,2-b]pyridin-7-yl)oxy)phenyl)-5-(4-fluorophenyl)-6-oxo-2,3,5,6-tetrahydrofuro[3,2-c]pyridine-7-carboxamide] | 15.4 | 47 | 40.9 | 52 | – | – | – | – | –
3.21 | – | COc1cc2nccc(Oc3ccc(NC(=O)c4c5c(cn(-c6ccc(F)cc6)c4=O)CCO5)cc3F)c2cc1OC [Example 40, N-(4-((6,7-Dimethoxyquinolin-4-yl)oxy)-3-fluorophenyl)-5-(4-fluorophenyl)-6-oxo-2,3,5,6-tetrahydrofuro[3,2-c]pyridine-7-carboxamide] | 8.5 | 9.2 | 29.8 | 37.3 | 9.17 | 22.9 | – | – | –
1.83 | 1 | COc1cc2nccc(Oc3ccc(NC(=O)c4c5c(cn(-c6ccc(F)cc6)c4=O)CCO5)cc3F)c2cc1NC(C)=O [Example 52, N-(4-((6-Acetamido-7-methoxyquinolin-4-yl)oxy)-3-fluorophenyl)-5-(4-fluorophenyl)-6-oxo-2,3,5,6-tetrahydrofuro[3,2-c]pyridine-7-carboxamide] | 13.6 | 81.8 | 10.1 | 24.7 | 10.5 | 16.1 | – | – | –
– | 3 | COc1cc2c(Oc3ccc(NC(=O)c4c5c(cn(-c6ccc(F)cc6)c4=O)CCO5)cc3F)ccnc2cc1OCCCN1CC(F)(F)C1 [Example 87, N-(4-((7-(3-(3,3-Difluoroazetidin-1-yl)propoxy)-6-methoxyquinolin-4-yl)oxy)-3-fluorophenyl)-5-(4-fluorophenyl)-6-oxo-2,3,5,6-tetrahydrofuro[3,2-c]pyridine-7-carboxamide] | 77.1 | 70.5 | 40.7 | 60.1 | – | – | – | – | –
– | 4 | COc1cc2c(Oc3ccc(NC(=O)c4c5c(cn(-c6ccc(F)cc6)c4=O)CCO5)cc3F)ccnc2cc1OCCCN1CCC(F)(F)CC1 [Example 105, N-(4-((7-(3-(4,4-Difluoropiperidin-1-yl)propoxy)-6-methoxyquinolin-4-yl)oxy)-3-fluorophenyl)-5-(4-fluorophenyl)-6-oxo-2,3,5,6-tetrahydrofuro[3,2-c]pyridine-7-carboxamide] | 60.4 | 84.1 | 33.8 | 45.2 | – | – | – | – | –
– | 5 | COc1cc2c(Oc3ccc(NC(=O)c4c5c(cn(-c6ccc(F)cc6)c4=O)CCO5)cc3F)ccnc2cc1OCCN1CC(F)(F)C1 [Example 124, N-(4-((7-(2-(3,3-difluoroazetidin-1-yl)ethoxy)-6-methoxyquinolin-4-yl)oxy)-3-fluorophenyl)-5-(4-fluorophenyl)-6-oxo-2,3,5,6-tetrahydrofuro[3,2-c]pyridine-7-carboxamide] | 6.2 | 98.7 | 16.3 | 57.3 | 15.7 | 62.1 | – | – | –
– | 3 | COc1cc2c(Oc3ccc(NC(=O)c4c5c(cn(-c6ccc(F)cc6)c4=O)CCO5)cc3F)ccnc2cc1OCCN1CC(C#N)C1 [Example 125] | 60.9 | 91.5 | 22.3 | 39.6 | 39.4 | 67.8 | high cell-killing effect | high cell-killing effect | high cell-killing effect
– | 2 | COc1cc2c(Oc3ccc(NC(=O)c4c5c(cn(-c6ccc(F)cc6)c4=O)CCO5)cc3F)ccnc2cc1OCCN1CCC(F)(F)C1 [Example 134, N-(4-((7-(2-(3,3-Difluoropyrrolidin-1-yl)ethoxy)-6-methoxyquinolin-4-yl)oxy)-3-fluorophenyl)-5-(4-fluorophenyl)-6-oxo-2,3,5,6-tetrahydrofuro[3,2-c]pyridine-7-carboxamide] | 76.1 | 82.8 | 35.5 | 47.4 | 47 | 82.2 | high cell-killing effect | high cell-killing effect | high cell-killing effect
– | 1 | COc1cc2c(Oc3ccc(NC(=O)c4c5c(cn(-c6ccc(F)cc6)c4=O)CCO5)cc3F)ccnc2cc1OCCN1CCS(=O)(=O)CC1 [Example 142, N-(4-((7-(2-(1,1-Dioxidothiomorpholino)ethoxy)-6-methoxyquinolin-4-yl)oxy)-3-fluorophenyl)-5-(4-fluorophenyl)-6-oxo-2,3,5,6-tetrahydrofuro[3,2-c]pyridine-7-carboxamide] | 74 | 67.6 | 34 | 40 | – | – | – | – | –
– | 2 | COc1cc2c(Oc3ccc(NC(=O)c4c5c(cn(-c6ccc(F)cc6)c4=O)CCO5)cc3F)ccnc2cc1OCCN1CCC(F)(F)CC1 [Example 145, N-(4-((7-(2-(4,4-Difluoropiperidin-1-yl)ethoxy)-6-methoxyquinolin-4-yl)oxy)-3-fluorophenyl)-5-(4-fluorophenyl)-6-oxo-2,3,5,6-tetrahydrofuro[3,2-c]pyridine-7-carboxamide] | 11 | 87.1 | 25.7 | 45.4 | 16.4 | 81.4 | – | – | –
– | 133 | CCOc1ccn(-c2ccc(F)cc2)c(=O)c1C(=O)Nc1ccc(Oc2ccnc(N)c2Cl)c(F)c1 [Positive control, N-(4-(2-amino-3-chloropyridin-4-yloxy)-3-fluorophenyl)-4-ethoxy-1-(4-fluorophenyl)-2-oxo-1,2-dihydropyridine-3-carboxamide, reference compound] | 3.46 | 9.28 | 9.94 | 12.8 | 10.4 | 16.1 | – | – | –

Reference: patent US20220235064A1 (WELLMARKER BIO CO., LTD., priority 2019, published 2022)
